The numbers were not newly measured in patent US20250131989A1, “LABORATORY CALIBRATION SYSTEM OF MATERIALS FOR USAGE IN SIMULATIONS AND FORECAST OF DISSOLUTION, DISINTEGRATION, DIFFUSION, COMPRESSION, DEFORMATION AND OTHER RELATED MATERIAL PROPERTIES AND CORRESPONDING METHOD THEREOF” (CINCAP GMBH, priority 2021, published 2025), which cites them from elsewhere.

For data set [1] the following is noted: key 7 (solubility vs. pH data point); example JSON database record, producer CINCAP.
For data set [2] the following is noted: example JSON database record, producer CINCAP.

For the molecule `Cn1c(=O)c2[nH]cnc2n(C)c1=O` [Theophilline], the solubility entry in data set [1] was ““solubility”:[{“key”:7, “value”:7.36}],”. For the same molecule, in data set [2], the diffusivity entry is on record as ““diffusivity”:6.16e−10,”.
